In patent US20210308308A1, “SYRINGE AND KIT FOR INTRAVESICAL USE” (Farco-Pharma GmbH, priority 2020, published 2021):
Counter-ions that a name gives are not always drawn.

Assay: stability of oxybutynin hydrochloride composition during terminal vapor sterilization in prefilled piston syringes

CCN(CC)CC#CCOC(=O)C(O)(c1ccccc1)C1CCCCC1 (centres unmarked) [oxybutynin hydrochloride, 4-diethylaminobut-2-inyl-2-cyclohexyl-2-hydroxy-2-phenyl ethanoate]
further impurities after vapor sterilization (1 mg/ml, pH 4.0, polypropylene syringes with piston plugs of conventional rubber material, vapor sterilization): exceeding 0.5%
stability during thermal sterilization (in words) (aqueous composition, polypropylene (disposable) syringes, piston plugs and closing caps of commonly used rubber materials): high instability or incompatibility
